Test results published in paper PMC10460054, “Multiplex Quantitative Analysis of 9 Compounds of Scutellaria baicalensis Georgi in the Plasma of Respiratory Syncytial Virus-Infected Mice Based on HPLC-MS/MS and Pharmacodynamic Effect Correlation Analysis” (Molecules, 2023).
Converted amounts (≈) assume the structure as drawn.

Tests used:
RSV = details: cited from earlier work
[1] = HPLC-MS/MS quantification of 9 compounds in plasma of RSV-infected mice after Scutellaria baicalensis Georgi administration; assay type: in vivo, BALB/c mice; design: drug-containing plasma content: unit not given here
Protocol: The study employed a Vanquish high-performance liquid chromatograph for chromatographic separation, with a HALO C18 column (2.1 × 100 mm, 2.7 μm) as the chromatographic column.
Mass spectrometry was performed using a quadrupole-electrostatic field orbitrap desktop mass spectrometer equipped with an electrospray ion source (ESI). The ESI parameters were set as follows: the pyrolysis voltage was 3.0 kV, the auxiliary gas flow rate was 10 mL/min, the ion transport tube temperature was 350 °C, the auxiliary gas temperature was 350 °C, and the sheath gas flow rate was 45 L/min. Quantitative analysis was performed using the selective ion detection (SIM) mode (Table S1).
Male BALB/c mice, aged 2 weeks and weighing 10–12 g, were chosen for this study. They were acclimatized for 2 days and then randomly assigned to one of five groups: blank (C), model (M), positive control ribavirin (Y1), positive control lianhua qingwen granules (Y2), and Scutellaria baicalensis Georgi administration (H1-H12). Each group consisted of six mice, and their weights were recorded. The mice were pre-administered for 2 days, and on the third day, RSV virus (TCID50 = 10^−6) was inoculated through intranasal infection at a volume of 35 μL per mouse. The blank group was inoculated with normal saline of the same volume. After the inoculation of the RSV virus, the blank and model groups were given distilled water by gavage, while the drug-administered groups were given an aqueous extract of Scutellaria baicalensis Georgi (10 µL/g) once a day for 3 days. The mice were observed daily for their mental status, hair color, diet, and body weight. […] It was then centrifuged at 3000 r/min for 10 min, and the upper layer of plasma was stored at −80℃. Lung tissues were weighed, the lung index was calculated, and the lung tissues were stored in the refrigerator at −80 °C for freezing.
The plasma sample (200 μL) was processed in a 5 mL tube. Subsequently, 10 μL of 5% formic acid and 20 μL of 2 mol/L hydrochloric acid were added, followed by vortexing for 1 min with 10 μL of internal standard solution (100 ng/mL tinidazole). The extraction was completed by adding 2000 μL of acetonitrile solvent and vortexing for 2 min. The mixture was then centrifuged at 12,000 r/min at 4 °C for 10 min, and the supernatant solution was collected in a new centrifuge tube. The supernatant solution was dried by nitrogen at room temperature before being redissolved in 50 μL of 70% acetonitrile solution containing 0.1% formic acid. After vortexing for 1 min, the solution was centrifuged at 12,000 r/min at 4 °C for 10 min, and the resulting supernatant was injected for analysis. The injection volume was 3 μL.
The drug-containing plasma at different time points was subjected to sample treatment. The HPLC-MS/MS analysis method was used to quantitatively detect the 9 compounds in the ion detection (SIM) mode. According to the relative peak area value = index peak area/internal standard peak area, the corresponding concentration value was calculated by substituting the standard curve of each component.

[2] = Stability of 9 compounds in mouse plasma under storage conditions; assay type: in vitro ADME; details: n = 6; for Stability 3-Freeze-Thaw Cycles RE: 3 times repeated freeze-thaw at −80 °C; for Stability Short-Term RE: 12 h at 4 °C; for Stability Long-Term RE: −20 °C for 20 days
[3] = tested on: respiratory syncytial virus (RSV); test: Lung tissue viral load (RSV-F real-time PCR) and inhibition rate in RSV-infected mice; assay type: in vivo; details: positive control groups
Protocol: Male BALB/c mice, aged 2 weeks and weighing 10–12 g, were chosen for this study. They were acclimatized for 2 days and then randomly assigned to one of five groups: blank (C), model (M), positive control ribavirin (Y1), positive control lianhua qingwen granules (Y2), and Scutellaria baicalensis Georgi administration (H1-H12). Each group consisted of six mice, and their weights were recorded. The mice were pre-administered for 2 days, and on the third day, RSV virus (TCID50 = 10^−6) was inoculated through intranasal infection at a volume of 35 μL per mouse. The blank group was inoculated with normal saline of the same volume. […] Lung tissues were weighed, the lung index was calculated, and the lung tissues were stored in the refrigerator at −80 °C for freezing.
The F protein is a RSV-specific protein, so it can be used as a PCR gene indicator to indicate the viral load of lung tissue. […] After quantification, the RNA was reverse transcribed into cDNA, and the SYBR Green Master Mix reagent was used as the reaction system. […] The viral load inhibition rate was calculated using the 2^−ΔΔCt formula, and a graph depicting the change in lung tissue viral load over time was plotted, with time as the abscissa and lung tissue viral load as the ordinate. […]

[4] = tested on: respiratory syncytial virus (RSV); test: Lung index and lung index repair rate in RSV-infected mice; assay type: in vivo; details: positive control groups
Protocol: Male BALB/c mice, aged 2 weeks and weighing 10–12 g, were chosen for this study. They were acclimatized for 2 days and then randomly assigned to one of five groups: blank (C), model (M), positive control ribavirin (Y1), positive control lianhua qingwen granules (Y2), and Scutellaria baicalensis Georgi administration (H1-H12). Each group consisted of six mice, and their weights were recorded. The mice were pre-administered for 2 days, and on the third day, RSV virus (TCID50 = 10^−6) was inoculated through intranasal infection at a volume of 35 μL per mouse. The blank group was inoculated with normal saline of the same volume. After the inoculation of the RSV virus, the blank and model groups were given distilled water by gavage, while the drug-administered groups were given an aqueous extract of Scutellaria baicalensis Georgi (10 µL/g) once a day for 3 days. The mice were observed daily for their mental status, hair color, diet, and body weight. […] Lung tissues were weighed, the lung index was calculated, and the lung tissues were stored in the refrigerator at −80 °C for freezing.
Based on the recorded body weight and lung tissue weight of mice in the blank, model, positive control, and administration groups, the lung index and lung index repair rate were calculated for each group. […]

[5] = RSV-infected mice after Scutellaria baicalensis Georgi administration, double peak phenomenon
[6] = RSV-infected mice, 0.083 h after last gavage of Scutellaria baicalensis Georgi extract, mean ± SD, n = 6
[7] = RSV-infected mice, 0.167 h after last gavage of Scutellaria baicalensis Georgi extract, mean ± SD, n = 6
[8] = RSV-infected mice, 0.25 h after last gavage of Scutellaria baicalensis Georgi extract, mean ± SD, n = 6
[9] = RSV-infected mice, 0.5 h after last gavage of Scutellaria baicalensis Georgi extract, mean ± SD, n = 6
[10] = RSV-infected mice, 1 h after last gavage of Scutellaria baicalensis Georgi extract, mean ± SD, n = 6
[11] = RSV-infected mice, 2 h after last gavage of Scutellaria baicalensis Georgi extract, mean ± SD, n = 6
[12] = RSV-infected mice, 4 h after last gavage of Scutellaria baicalensis Georgi extract, mean ± SD, n = 6
[13] = RSV-infected mice, 6 h after last gavage of Scutellaria baicalensis Georgi extract, mean ± SD, n = 6
[14] = RSV-infected mice, 8 h after last gavage of Scutellaria baicalensis Georgi extract, mean ± SD, n = 6
[15] = RSV-infected mice, 10 h after last gavage of Scutellaria baicalensis Georgi extract, mean ± SD, n = 6
[16] = RSV-infected mice, 12 h after last gavage of Scutellaria baicalensis Georgi extract, mean ± SD, n = 6
[17] = RSV-infected mice, 24 h after last gavage of Scutellaria baicalensis Georgi extract, mean ± SD, n = 6
[18] = high QC (20,000 or 10,000 ng/mL)

time of highest plasma concentration, first peak [1, 5] [h] | time of highest plasma concentration, second peak [1, 5] [h] | drug-containing plasma content [1, 6] | drug-containing plasma content [1, 7] | drug-containing plasma content [1, 8] | drug-containing plasma content [1, 9] | drug-containing plasma content [1, 10] | drug-containing plasma content [1, 11] | drug-containing plasma content [1, 12] | drug-containing plasma content [1, 13] | drug-containing plasma content [1, 14] | Stability 3-Freeze-Thaw Cycles RE [2, 18] [%] | Stability 3-Freeze-Thaw Cycles RE ([2]; low QC (12.5 or 25.6 ng/mL)) [%] | Stability 3-Freeze-Thaw Cycles RE ([2]; medium QC (320 or 160 ng/mL)) [%] | Stability Short-Term RE [2, 18] [%] | Stability Short-Term RE ([2]; low QC (12.5 or 25.6 ng/mL)) [%] | Stability Short-Term RE ([2]; medium QC (320 or 160 ng/mL)) [%] | Stability Long-Term RE [2, 18] [%] | Stability Long-Term RE ([2]; low QC (12.5 or 25.6 ng/mL)) [%] | Stability Long-Term RE ([2]; medium QC (320 or 160 ng/mL)) [%] | SMILES | further results
0.167 | 6 | 344.59± 1.64 | 981.37± 13.72 | 471.39± 1.78 | 222.21± 6.76 | 181.04± 4.74 | 10.35± 1.79 | 71.39± 17.8 | 2664.55± 129.18 | 97.31± 2.71 | 12.89 | −11.16 | 9.82 | 8.46 | −9.77 | 11.75 | 8.46 | −13.33 | 11.75 | COc1c(O)cc(O)c2c(=O)cc(-c3ccccc3)oc12 [Wogonin] | IC50 against RSV (RSV): 7.4 µg/mL (≈ 26 µM); drug-containing plasma content [1, 15]: 14.65± 8.42; drug-containing plasma content [1, 16]: 3.41± 5.28; drug-containing plasma content [1, 17]: 0
 |  |  |  |  |  |  |  |  |  |  |  |  |  |  |  |  |  |  |  | NC(=O)c1ncn([C@@H]2O[C@H](CO)[C@@H](O)[C@H]2O)n1 [Y1, ribavirin] | Inhibitory Rates (viral load) [3]: 61.26%; Viral Load ([3]; mean ± SD, n = 6): 2.27 ± 0.37 ×10^5 Copies/Ml; Repair Rate (lung index) [4]: 58.33%; Lung Index ([4]; mean ± SD, n = 6): 0.85 ± 0.08 %
 |  |  |  |  |  |  |  |  |  |  | 8.37 | −2.43 | −0.72 | 8.60 | −3.20 | −2.08 | 9.80 | −3.16 | −1.48 | O=C(O)[C@H]1O[C@@H](Oc2cc(O)c3c(=O)cc(-c4ccc(O)cc4)oc3c2)[C@H](O)[C@@H](O)[C@@H]1O [Apigenin-7-glucuronide] | time of highest plasma concentration, first peak ([1]; male, BALB/c, mouse, in vivo): 0.167 h; time of highest plasma concentration, second peak ([1]; male, BALB/c, mouse, in vivo): 6 h; drug-containing plasma content ([1]; male, BALB/c, mouse, in vivo, 0.083 h): 4725.60± 214.70; drug-containing plasma content ([1]; male, BALB/c, mouse, in vivo, 0.167 h): 6986.86± 153.57; drug-containing plasma content ([1]; male, BALB/c, mouse, in vivo, 0.25 h): 4610.60± 192.08; drug-containing plasma content ([1]; male, BALB/c, mouse, in vivo, 0.5 h): 4344.98± 173.73; drug-containing plasma content ([1]; male, BALB/c, mouse, in vivo, 1 h): 1590.11± 125.69; drug-containing plasma content ([1]; male, BALB/c, mouse, in vivo, 2 h): 2934.42± 221.23; drug-containing plasma content ([1]; male, BALB/c, mouse, in vivo, 4 h): 1037.07± 106.48; drug-containing plasma content ([1]; male, BALB/c, mouse, in vivo, 6 h): 9344.98± 327.73; drug-containing plasma content ([1]; male, BALB/c, mouse, in vivo, 8 h): 2958.20± 207.61; drug-containing plasma content ([1]; male, BALB/c, mouse, in vivo, 10 h): 896.04± 55.63; drug-containing plasma content ([1]; male, BALB/c, mouse, in vivo, 12 h): 47.32± 11.82; drug-containing plasma content ([1]; male, BALB/c, mouse, in vivo, 24 h): 23.55± 2.60
0.167 | 6 | 553.37± 9.22 | 1829.58± 102.08 | 928.49± 33.77 | 776.20± 41.04 | 1078.05± 63.01 | 1333.51± 38.28 | 1372.78± 53.34 | 3829.58± 182.08 | 1825.89± 177.13 | 1.79 | −8.61 | 0.60 | 3.40 | −3.08 | −1.39 | 3.40 | −2.30 | −2.01 | COc1c(O[C@@H]2O[C@H](C(=O)O)[C@@H](O)[C@H](O)[C@H]2O)cc(O)c2c(=O)cc(-c3ccccc3)oc12 [Wogonoside] | drug-containing plasma content [1, 15]: 318.50± 23.92; drug-containing plasma content [1, 16]: 188.85± 19.38; drug-containing plasma content [1, 17]: 0
